From patent publication US8192962B2, “Processes for detecting toxic substances” (Daikin Industries, Ltd., priority 2001, dated 2012)

Test system: Stress protein genes
Test: DNA chip mRNA expression in yeast, stress protein genes (Table 6)
Type: cell-based, Saccharomyces cerevisiae S288C
Method in brief: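 Expression change after 2 h toxicant exposure (growth-inhibiting, sub-lethal) of log-phase S. cerevisiae S288C at 25° C. Oligo-dT-purified mRNA was labeled with Cy3-dUTP or Cy5-dUTP and hybridized >12 h at 65° C. to a genome-wide chip; ratio of scanned fluorescence to control.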

Compound: [Cl][Pb][Cl] [(4), PbCl2]
- The level of expressed mRNA in the presence of chemical substance/The level of expressed mRNA in the absence of chemical substance (yeast gene YAL005C): 0.9
- The level of expressed mRNA in the presence of chemical substance/The level of expressed mRNA in the absence of chemical substance (yeast gene YAL015C): 1.9
- The level of expressed mRNA in the presence of chemical substance/The level of expressed mRNA in the absence of chemical substance (yeast gene YBL075C): 1.6
- The level of expressed mRNA in the presence of chemical substance/The level of expressed mRNA in the absence of chemical substance (yeast gene YBL093C): 1.4
- The level of expressed mRNA in the presence of chemical substance/The level of expressed mRNA in the absence of chemical substance (yeast gene YBR044C): 1.9
- The level of expressed mRNA in the presence of chemical substance/The level of expressed mRNA in the absence of chemical substance (yeast gene YBR054W): 1.7
- The level of expressed mRNA in the presence of chemical substance/The level of expressed mRNA in the absence of chemical substance (yeast gene YBR067C): 0.9
- The level of expressed mRNA in the presence of chemical substance/The level of expressed mRNA in the absence of chemical substance (yeast gene YBR072W): 10.5
- The level of expressed mRNA in the presence of chemical substance/The level of expressed mRNA in the absence of chemical substance (yeast gene YBR126C): 1.2
- The level of expressed mRNA in the presence of chemical substance/The level of expressed mRNA in the absence of chemical substance (yeast gene YBR169C): 1.9
- The level of expressed mRNA in the presence of chemical substance/The level of expressed mRNA in the absence of chemical substance (yeast gene YCL035C): 1.7
- The level of expressed mRNA in the presence of chemical substance/The level of expressed mRNA in the absence of chemical substance (yeast gene YCR021C): 8.6
- The level of expressed mRNA in the presence of chemical substance/The level of expressed mRNA in the absence of chemical substance (yeast gene YCR083W): 1.8
- The level of expressed mRNA in the presence of chemical substance/The level of expressed mRNA in the absence of chemical substance (yeast gene YDL022W): 1.5
- The level of expressed mRNA in the presence of chemical substance/The level of expressed mRNA in the absence of chemical substance (yeast gene YDL025C): 1.5
- The level of expressed mRNA in the presence of chemical substance/The level of expressed mRNA in the absence of chemical substance (yeast gene YDR033W): 1.5
- The level of expressed mRNA in the presence of chemical substance/The level of expressed mRNA in the absence of chemical substance (yeast gene YDR077W): 2.1
- The level of expressed mRNA in the presence of chemical substance/The level of expressed mRNA in the absence of chemical substance (yeast gene YDR098C): 0.8
- The level of expressed mRNA in the presence of chemical substance/The level of expressed mRNA in the absence of chemical substance (yeast gene YDR155C): 1.8
- The level of expressed mRNA in the presence of chemical substance/The level of expressed mRNA in the absence of chemical substance (yeast gene YDR258C): 1.4
- The level of expressed mRNA in the presence of chemical substance/The level of expressed mRNA in the absence of chemical substance (yeast gene YDR293C): 1.4
- The level of expressed mRNA in the presence of chemical substance/The level of expressed mRNA in the absence of chemical substance (yeast gene YDR436W): 1.4
- The level of expressed mRNA in the presence of chemical substance/The level of expressed mRNA in the absence of chemical substance (yeast gene YDR513W): 2.6
- The level of expressed mRNA in the presence of chemical substance/The level of expressed mRNA in the absence of chemical substance (yeast gene YDR519W): 1.6
- The level of expressed mRNA in the presence of chemical substance/The level of expressed mRNA in the absence of chemical substance (yeast gene YEL030W): 1.1
- The level of expressed mRNA in the presence of chemical substance/The level of expressed mRNA in the absence of chemical substance (yeast gene YEL039C): 5.1
- The level of expressed mRNA in the presence of chemical substance/The level of expressed mRNA in the absence of chemical substance (yeast gene YER042W): 1.0
- The level of expressed mRNA in the presence of chemical substance/The level of expressed mRNA in the absence of chemical substance (yeast gene YER057C): 1.8
- The level of expressed mRNA in the presence of chemical substance/The level of expressed mRNA in the absence of chemical substance (yeast gene YER103W): 2.1
- The level of expressed mRNA in the presence of chemical substance/The level of expressed mRNA in the absence of chemical substance (yeast gene YER125W): 0.9
- The level of expressed mRNA in the presence of chemical substance/The level of expressed mRNA in the absence of chemical substance (yeast gene YFL014W): 11.0
- The level of expressed mRNA in the presence of chemical substance/The level of expressed mRNA in the absence of chemical substance (yeast gene YFL016C): 0.9
- The level of expressed mRNA in the presence of chemical substance/The level of expressed mRNA in the absence of chemical substance (yeast gene YFL020C): 1.2
- The level of expressed mRNA in the presence of chemical substance/The level of expressed mRNA in the absence of chemical substance (yeast gene YFR052W): 1.5
- The level of expressed mRNA in the presence of chemical substance/The level of expressed mRNA in the absence of chemical substance (yeast gene YGL073W): 1.0
- The level of expressed mRNA in the presence of chemical substance/The level of expressed mRNA in the absence of chemical substance (yeast gene YGL115W): 2.0
- The level of expressed mRNA in the presence of chemical substance/The level of expressed mRNA in the absence of chemical substance (yeast gene YGL181W): 1.1
- The level of expressed mRNA in the presence of chemical substance/The level of expressed mRNA in the absence of chemical substance (yeast gene YGR088W): 2.4
- The level of expressed mRNA in the presence of chemical substance/The level of expressed mRNA in the absence of chemical substance (yeast gene YHL028W): 0.5
- The level of expressed mRNA in the presence of chemical substance/The level of expressed mRNA in the absence of chemical substance (yeast gene YHL046C): 1.3
- The level of expressed mRNA in the presence of chemical substance/The level of expressed mRNA in the absence of chemical substance (yeast gene YHR030C): 2.9
- The level of expressed mRNA in the presence of chemical substance/The level of expressed mRNA in the absence of chemical substance (yeast gene YHR057C): 0.9
- The level of expressed mRNA in the presence of chemical substance/The level of expressed mRNA in the absence of chemical substance (yeast gene YHR104W): 1.9
- The level of expressed mRNA in the presence of chemical substance/The level of expressed mRNA in the absence of chemical substance (yeast gene YIL011W): 0.6
- The level of expressed mRNA in the presence of chemical substance/The level of expressed mRNA in the absence of chemical substance (yeast gene YIL033C): 1.3
- The level of expressed mRNA in the presence of chemical substance/The level of expressed mRNA in the absence of chemical substance (yeast gene YIR037W): 2.3
- The level of expressed mRNA in the presence of chemical substance/The level of expressed mRNA in the absence of chemical substance (yeast gene YIR038C): 2.0
- The level of expressed mRNA in the presence of chemical substance/The level of expressed mRNA in the absence of chemical substance (yeast gene YJL128C): 0.8
- The level of expressed mRNA in the presence of chemical substance/The level of expressed mRNA in the absence of chemical substance (yeast gene YJL158C): 1.5
- The level of expressed mRNA in the presence of chemical substance/The level of expressed mRNA in the absence of chemical substance (yeast gene YJL159W): 1.1
- The level of expressed mRNA in the presence of chemical substance/The level of expressed mRNA in the absence of chemical substance (yeast gene YJL165C): 1.6
- The level of expressed mRNA in the presence of chemical substance/The level of expressed mRNA in the absence of chemical substance (yeast gene YJR090C): 0.8
- The level of expressed mRNA in the presence of chemical substance/The level of expressed mRNA in the absence of chemical substance (yeast gene YKL161C): 2.2
- The level of expressed mRNA in the presence of chemical substance/The level of expressed mRNA in the absence of chemical substance (yeast gene YKL163W): 1.9
- The level of expressed mRNA in the presence of chemical substance/The level of expressed mRNA in the absence of chemical substance (yeast gene YKL164C): 0.9
- The level of expressed mRNA in the presence of chemical substance/The level of expressed mRNA in the absence of chemical substance (yeast gene YKL210W): 0.7
- The level of expressed mRNA in the presence of chemical substance/The level of expressed mRNA in the absence of chemical substance (yeast gene YKR053C): 1.2
- The level of expressed mRNA in the presence of chemical substance/The level of expressed mRNA in the absence of chemical substance (yeast gene YLL024C): 0.8
- The level of expressed mRNA in the presence of chemical substance/The level of expressed mRNA in the absence of chemical substance (yeast gene YLL026W): 1.7
- The level of expressed mRNA in the presence of chemical substance/The level of expressed mRNA in the absence of chemical substance (yeast gene YLL039C): 1.2
- The level of expressed mRNA in the presence of chemical substance/The level of expressed mRNA in the absence of chemical substance (yeast gene YLL060C): 2.6
- The level of expressed mRNA in the presence of chemical substance/The level of expressed mRNA in the absence of chemical substance (yeast gene YLR006C): 6.2
- The level of expressed mRNA in the presence of chemical substance/The level of expressed mRNA in the absence of chemical substance (yeast gene YLR109W): 0.9
- The level of expressed mRNA in the presence of chemical substance/The level of expressed mRNA in the absence of chemical substance (yeast gene YLR259C): 1.6
- The level of expressed mRNA in the presence of chemical substance/The level of expressed mRNA in the absence of chemical substance (yeast gene YML007W): 1.3
- The level of expressed mRNA in the presence of chemical substance/The level of expressed mRNA in the absence of chemical substance (yeast gene YML070W): 1.9
- The level of expressed mRNA in the presence of chemical substance/The level of expressed mRNA in the absence of chemical substance (yeast gene YMR021C): 1.1
- The level of expressed mRNA in the presence of chemical substance/The level of expressed mRNA in the absence of chemical substance (yeast gene YMR173W): 0.9
- The level of expressed mRNA in the presence of chemical substance/The level of expressed mRNA in the absence of chemical substance (yeast gene YMR186W): 0.9
- The level of expressed mRNA in the presence of chemical substance/The level of expressed mRNA in the absence of chemical substance (yeast gene YNL064C): 1.1
- The level of expressed mRNA in the presence of chemical substance/The level of expressed mRNA in the absence of chemical substance (yeast gene YNL160W): 2.0
- The level of expressed mRNA in the presence of chemical substance/The level of expressed mRNA in the absence of chemical substance (yeast gene YNL241C): 1.0
- The level of expressed mRNA in the presence of chemical substance/The level of expressed mRNA in the absence of chemical substance (yeast gene YNR076W): 1.0
- The level of expressed mRNA in the presence of chemical substance/The level of expressed mRNA in the absence of chemical substance (yeast gene YOL064C): 0.6
- The level of expressed mRNA in the presence of chemical substance/The level of expressed mRNA in the absence of chemical substance (yeast gene YOL161C): 1.4
- The level of expressed mRNA in the presence of chemical substance/The level of expressed mRNA in the absence of chemical substance (yeast gene YOR008C): 1.1
- The level of expressed mRNA in the presence of chemical substance/The level of expressed mRNA in the absence of chemical substance (yeast gene YOR009W): 0.7
- The level of expressed mRNA in the presence of chemical substance/The level of expressed mRNA in the absence of chemical substance (yeast gene YOR010C): 0.6
- The level of expressed mRNA in the presence of chemical substance/The level of expressed mRNA in the absence of chemical substance (yeast gene YOR027W): 0.8
- The level of expressed mRNA in the presence of chemical substance/The level of expressed mRNA in the absence of chemical substance (yeast gene YOR208W): 2.9
- The level of expressed mRNA in the presence of chemical substance/The level of expressed mRNA in the absence of chemical substance (yeast gene YPL059W): 1.3
- The level of expressed mRNA in the presence of chemical substance/The level of expressed mRNA in the absence of chemical substance (yeast gene YPL106C): 1.1
- The level of expressed mRNA in the presence of chemical substance/The level of expressed mRNA in the absence of chemical substance (yeast gene YPL140C): 1.0
- The level of expressed mRNA in the presence of chemical substance/The level of expressed mRNA in the absence of chemical substance (yeast gene YPL194W): 1.1
- The level of expressed mRNA in the presence of chemical substance/The level of expressed mRNA in the absence of chemical substance (yeast gene YPL223C): 5.1
- The level of expressed mRNA in the presence of chemical substance/The level of expressed mRNA in the absence of chemical substance (yeast gene YPL240C): 0.9
- The level of expressed mRNA in the presence of chemical substance/The level of expressed mRNA in the absence of chemical substance (yeast gene YPR005C): 3.8
- The level of expressed mRNA in the presence of chemical substance/The level of expressed mRNA in the absence of chemical substance (yeast gene YPR026W): 1.3
